Experimental data as given in ChEMBL document CHEMBL1201862, “PubChem BioAssay data set” (2004).
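Five compound concentrations were applied to cells in 96-well plates for 48 hours; endpoints were derived by simple linear interpolation of the resulting dose-response curve. The concentration for 50% growth inhibition is given as GI50.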 Activity calls are given as the source filed them. Cut-off read from the data, not from the text of the source: active = GI50 up to about 1.1 µM and inactive = higher.

Tests used:
Experiment in all cases: NCI tumour cell line growth inhibition, 48 h
[1] = system: NCI-H23
[2] = system: MDA-MB-231
[3] = system: TK-10
[4] = system: NCI/ADR-RES
[5] = system: PC-3
[6] = system: CCRF-CEM
[7] = system: LOX IMVI
[8] = system: IGROV-1
[9] = system: SK-MEL-2
[10] = system: SNB-75
[11] = system: KM12
[12] = system: T47D
[13] = system: OVCAR-4
[14] = system: HCC 2998
[15] = system: SW-620
[16] = system: COLO 205
[17] = system: SN12C
[18] = system: HT-29
[19] = system: SK-MEL-5
[20] = system: SF-295

SMILES	GI50 [1]	GI50 [2]	GI50 [3]	GI50 [4]	GI50 [5]	GI50 [6]	GI50 [7]	GI50 [8]	GI50 [9]	GI50 [10]	GI50 [11]	GI50 [12]	GI50 [13]	GI50 [14]	GI50 [15]	GI50 [16]	GI50 [17]	GI50 [18]	GI50 [19]	GI50 [20]
COc1ccc2c(c1)C(OC)C1c3c(cc4c(c3-2)OCO4)CCN1C (stereo not given)	2.8 µM (inactive)	2.44 µM (inactive)	4.53 µM (inactive)	1.87 µM (inactive)	2.6 µM (inactive)	2.24 µM (inactive)	2.81 µM (inactive)	2.88 µM (inactive)	2.73 µM (inactive)	4.05 µM (inactive)	4.34 µM (inactive)	6.56 µM (inactive)	2.32 µM (inactive)	3.4 µM (inactive)	2.32 µM (inactive)	2.79 µM (inactive)	2.64 µM (inactive)	2.21 µM (inactive)	2.43 µM (inactive)	2.38 µM (inactive)
COC(=N)c1ncn(Cc2ccccc2)c1N	> 100 µM (inactive)	> 100 µM (inactive)	> 100 µM (inactive)	> 100 µM (inactive)	> 100 µM (inactive)	> 100 µM (inactive)	> 100 µM (inactive)	> 100 µM (inactive)	> 100 µM (inactive)	> 100 µM (inactive)	> 100 µM (inactive)	> 100 µM (inactive)	> 100 µM (inactive)	> 100 µM (inactive)	> 100 µM (inactive)	> 100 µM (inactive)	> 100 µM (inactive)	> 100 µM (inactive)	> 100 µM (inactive)	> 100 µM (inactive)
N#Cc1c2c(c(N)oc1=O)C(c1ccccc1)CC(=O)N2 (stereo not given)	> 100 µM (inactive)	> 100 µM (inactive)	> 100 µM (inactive)	> 100 µM (inactive)	> 100 µM (inactive)	> 100 µM (inactive)	> 100 µM (inactive)	> 100 µM (inactive)	> 100 µM (inactive)	> 100 µM (inactive)	> 100 µM (inactive)	> 100 µM (inactive)	> 100 µM (inactive)	> 100 µM (inactive)	> 100 µM (inactive)	> 100 µM (inactive)	> 100 µM (inactive)	> 100 µM (inactive)	> 100 µM (inactive)	> 100 µM (inactive)
COc1cc(CCN(C)C)cc(OC)c1OC	> 100 µM (inactive)	> 100 µM (inactive)	> 100 µM (inactive)	> 100 µM (inactive)	> 100 µM (inactive)	> 100 µM (inactive)	> 100 µM (inactive)	> 100 µM (inactive)	> 100 µM (inactive)	> 100 µM (inactive)	> 100 µM (inactive)	> 100 µM (inactive)	> 100 µM (inactive)	> 100 µM (inactive)	> 100 µM (inactive)	> 100 µM (inactive)	> 100 µM (inactive)	> 100 µM (inactive)	> 100 µM (inactive)	> 100 µM (inactive)
c1ccc2c(CN3CCN(Cc4c[nH]c5ccccc45)CC3)c[nH]c2c1	19.8 µM (inactive)	14.9 µM (inactive)	15.6 µM (inactive)	23 µM (inactive)	18.6 µM (inactive)	39.9 µM (inactive)	16.3 µM (inactive)	11.9 µM (inactive)	16.7 µM (inactive)	13.3 µM (inactive)	16.8 µM (inactive)	14.2 µM (inactive)	41.4 µM (inactive)	1.63 µM (inactive)	28 µM (inactive)	5.58 µM (inactive)	17.7 µM (inactive)	17.5 µM (inactive)	15.2 µM (inactive)	16 µM (inactive)
Oc1ccc(O)c(CNc2ccccc2)c1	10.2 µM (inactive)	17.7 µM (inactive)	22.7 µM (inactive)	7.01 µM (inactive)	10.1 µM (inactive)	2.37 µM (inactive)	6.15 µM (inactive)	8.53 µM (inactive)	24.2 µM (inactive)	33.5 µM (inactive)	5.13 µM (inactive)	8.41 µM (inactive)	13 µM (inactive)	26.2 µM (inactive)	13.6 µM (inactive)	18.8 µM (inactive)	11.3 µM (inactive)	32.2 µM (inactive)	16.8 µM (inactive)	12.1 µM (inactive)
CCCC(=O)Nc1cc(C(=O)N2C[C@H]3C[C@@]34C2=CC(=O)c2[nH]cc(C)c24)n(COC)c1	0.0743 µM (active)	0.281 µM (active)	0.556 µM (active)	0.656 µM (active)	0.745 µM (active)	0.014 µM (active)	0.12 µM (active)	0.11 µM (active)	0.293 µM (active)	0.248 µM (active)	0.449 µM (active)	0.109 µM (active)	0.783 µM (active)	0.122 µM (active)	0.0169 µM (active)	0.442 µM (active)	0.966 µM (active)	0.467 µM (active)	0.0792 µM (active)	0.735 µM (active)
CC(C)(C)N(Cc1ccc2c(c1)OCO2)C(=O)/C=C\[S+]([O-])c1ccccc1 (stereo not given)	2.27 µM (inactive)	2.95 µM (inactive)	4.55 µM (inactive)	2.48 µM (inactive)	2.5 µM (inactive)	0.83 µM (active)	1.44 µM (inactive)	3.21 µM (inactive)	3.02 µM (inactive)	2.99 µM (inactive)	3.85 µM (inactive)	2.56 µM (inactive)	3.1 µM (inactive)	4.45 µM (inactive)	2.07 µM (inactive)	3.01 µM (inactive)	2.63 µM (inactive)	3.23 µM (inactive)	2.82 µM (inactive)	9.79 µM (inactive)
[O-][Cl+3]([O-])([O-])O.c1ccc(C2=NN2c2ccccc2)cc1	85.7 µM (inactive)	> 100 µM (inactive)	> 100 µM (inactive)	> 100 µM (inactive)	6.7 µM (inactive)	> 100 µM (inactive)	0.451 µM (active)	34 µM (inactive)	> 100 µM (inactive)	> 100 µM (inactive)	7.41 µM (inactive)	7.13 µM (inactive)	> 100 µM (inactive)	6.28 µM (inactive)	6.01 µM (inactive)	7.76 µM (inactive)	> 100 µM (inactive)	29.3 µM (inactive)	13.8 µM (inactive)	> 100 µM (inactive)
O=C(O)CCC1(c2ccccc2)NC(=O)NC1=O (stereo not given)	> 100 µM (inactive)	> 100 µM (inactive)	> 100 µM (inactive)	> 100 µM (inactive)	> 100 µM (inactive)	> 100 µM (inactive)	> 100 µM (inactive)	> 100 µM (inactive)	> 100 µM (inactive)	> 100 µM (inactive)	> 100 µM (inactive)	> 100 µM (inactive)	> 100 µM (inactive)	> 100 µM (inactive)	> 100 µM (inactive)	> 100 µM (inactive)	> 100 µM (inactive)	> 100 µM (inactive)	> 100 µM (inactive)	> 100 µM (inactive)
COc1cc([C@@H]2c3cc4c(cc3[C@H](OC3OC5COC(C(C)C)OC5C(O)C3O)C3COC(=O)[C@@H]32)OCO4)cc(OC)c1OC (stereo not given in full)	4.55 µM (inactive)	5.77 µM (inactive)	32 µM (inactive)	3.19 µM (inactive)	4.89 µM (inactive)	3.49 µM (inactive)	3.01 µM (inactive)	4.17 µM (inactive)	8.36 µM (inactive)	11.6 µM (inactive)	3.61 µM (inactive)	12.7 µM (inactive)	16.6 µM (inactive)	5.16 µM (inactive)	4.48 µM (inactive)	4.59 µM (inactive)	19.5 µM (inactive)	2.54 µM (inactive)	5.55 µM (inactive)	3.47 µM (inactive)
O=C(CSc1nc2ccc([N+](=O)[O-])cc2s1)c1ccc2ccccc2c1	33 µM (inactive)	> 100 µM (inactive)	54.2 µM (inactive)	> 100 µM (inactive)	88.1 µM (inactive)	84.5 µM (inactive)	> 100 µM (inactive)	> 100 µM (inactive)	> 100 µM (inactive)	> 100 µM (inactive)	> 100 µM (inactive)	> 100 µM (inactive)	41.2 µM (inactive)	> 100 µM (inactive)	> 100 µM (inactive)	> 100 µM (inactive)	> 100 µM (inactive)	> 100 µM (inactive)	> 100 µM (inactive)	93.1 µM (inactive)
O=C1N(CN2CCOCC2)CN(CN2CCOCC2)C(=O)N1Cc1ccccc1	17.9 µM (inactive)	26.2 µM (inactive)	> 100 µM (inactive)	23.1 µM (inactive)	29.9 µM (inactive)	28.7 µM (inactive)	15.5 µM (inactive)	24.5 µM (inactive)	16.3 µM (inactive)	25.5 µM (inactive)	23.8 µM (inactive)	30.3 µM (inactive)	42.7 µM (inactive)	30.9 µM (inactive)	22 µM (inactive)	20.1 µM (inactive)	23 µM (inactive)	20.3 µM (inactive)	19.4 µM (inactive)	> 100 µM (inactive)
